Data reported in the NIST ThermoML archive (doi:10.1016/j.fluid.2008.01.007).
Numbers after ± are expanded uncertainties.

Details: 101.33 kPa, Liquid

SMILES	mass density (298.15 K) [kg/m3]	mass density (293.15 K) [kg/m3]	other results
Cc1cccc(C)c1 [1,3-dimethylbenzene]		868.124 ± 0.65	
CCCCn1cc[n+](C)c1.F[P-](F)(F)(F)(F)F [1-butyl-3-methylimidazolium hexafluorophosphate]			mass density (293.15 K, Vibrating tube method): 1380.33 ± 13 kg/m3
CCCCCCCCC [nonane]		718.418 ± 0.96	
Cc1ccccc1 [toluene]	864.989 ± 0.18		

Continued, in another order:

mass density (298.15 K) [kg/m3]	SMILES	mass density (293.15 K) [kg/m3]	other results
873.945 ± 0.64	c1ccccc1 [benzene]		
740.289 ± 0.92	CCCCCCCCCCC [undecane]		
